ChEMBL document CHEMBL2046398, “Optimization of (2,3-dihydro-1-benzofuran-3-yl)acetic acids: discovery of a non-free fatty acid-like, highly bioavailable G protein-coupled receptor 40/free fatty acid receptor 1 agonist as a glucose-dependent insulinotropic agent” (J Med Chem, 2012)

Assays:
Conditions in all cases: in vivo; call rule not given here
Rattus norvegicus [1] = organism: Rattus norvegicus; assay: Drug metabolism in rat assessed as biphenylylcarboxylic acid derivative formation; format: ADME, organism-based
Rattus norvegicus [2] = organism: Rattus norvegicus; assay: Drug metabolism in rat assessed as taurine conjugate formation measured in bile; format: ADME, organism-based
Rattus norvegicus [3] = organism: Rattus norvegicus; assay: Drug metabolism in rat assessed as acyl glucuronide derivative formation in bile; format: ADME, organism-based
Rattus norvegicus [4] = organism: Rattus norvegicus; assay: Drug metabolism in rat assessed as biphenylylcarboxylic acid derivative formation in feces; format: ADME, organism-based
Rattus norvegicus [5] = organism: Rattus norvegicus; assay: Drug metabolism in rat assessed as taurine conjugate formation measured in feces; format: ADME, organism-based
Rattus norvegicus [6] = organism: Rattus norvegicus; assay: Drug metabolism in rat assessed as acyl glucuronide derivative formation measured in feces; format: ADME, organism-based
Canis familiaris [7] = organism: Canis familiaris; assay: Drug metabolism in dog assessed as biphenylylcarboxylic acid derivative formation measured in feces; format: ADME, organism-based, Canis lupus familiaris
Canis familiaris [8] = organism: Canis familiaris; assay: Drug metabolism in dog assessed as taurine conjugate formation measured in feces; format: ADME, organism-based, Canis lupus familiaris
Canis familiaris [9] = organism: Canis familiaris; assay: Drug metabolism in dog assessed as acyl glucuronide derivative formation measured in feces; format: ADME, organism-based, Canis lupus familiaris
Rattus norvegicus [10] = organism: Rattus norvegicus; assay: Drug metabolism in rat assessed as beta-oxidation derivative formation; format: ADME, organism-based
Canis familiaris [11] = organism: Canis familiaris; assay: Drug metabolism in dog assessed as beta-oxidation derivative formation; format: ADME, organism-based, Canis lupus familiaris

Cc1cc(OCCCS(C)(=O)=O)cc(C)c1-c1cccc([14CH2]Oc2ccc3c(c2)OC[C@H]3CC(=O)O)c1
Drug metabolism (Rattus norvegicus [1]): Active
Drug metabolism (Rattus norvegicus [2]): Active
Drug metabolism (Rattus norvegicus [3]): Active
Drug metabolism (Rattus norvegicus [4]): Active
Drug metabolism (Rattus norvegicus [5]): Active
Drug metabolism (Rattus norvegicus [6]): Active
Drug metabolism (Canis familiaris [7]): Active
Drug metabolism (Canis familiaris [8]): Active
Drug metabolism (Canis familiaris [9]): Active
Drug metabolism (Rattus norvegicus [10]): Not Active
Drug metabolism (Canis familiaris [11]): Not Active
